Consider ten molecules from PMC12640663 (Chemmedchem, 2025).

Where two headings read alike, the source gives them in different places.

Assay [1] deals with T1, hPTP1B1–400 (Homo sapiens, UniProt P18031).
T1 sequence (P18031 1-400): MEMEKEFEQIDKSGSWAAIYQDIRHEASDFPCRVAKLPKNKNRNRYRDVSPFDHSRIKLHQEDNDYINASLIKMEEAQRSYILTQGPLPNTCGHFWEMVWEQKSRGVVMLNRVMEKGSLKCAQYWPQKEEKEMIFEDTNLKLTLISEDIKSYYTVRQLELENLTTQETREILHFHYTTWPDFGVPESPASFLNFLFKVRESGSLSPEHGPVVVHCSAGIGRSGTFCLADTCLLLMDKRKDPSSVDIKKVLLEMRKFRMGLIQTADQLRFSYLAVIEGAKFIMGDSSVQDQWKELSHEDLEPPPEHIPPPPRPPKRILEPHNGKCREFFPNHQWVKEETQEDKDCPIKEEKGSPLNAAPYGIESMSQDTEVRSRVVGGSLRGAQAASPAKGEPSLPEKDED
As to the kind of experiment: Kinetic studies of PTP1B (hPTP1B1–400).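 For all read-outs here: enzyme kinetics run across a range of substrate and inhibitor levels, control lacking inhibitor, triplicate runs, parameters derived by fitting Michaelis–Menten style equations.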 The note with it: for Inhibition type: hPTP1B1–400; for K m / V max: hPTP1B1–400 with inhibitor.
Protocol: Kinetic analyses were performed at various substrate and inhibitor concentrations.
The negative control was prepared with the enzyme and substrate in the absence of the inhibitor. Experiments were conducted in triplicate.^[ [30] ^] […] The kinetic parameters of enzyme inhibition, K m and V max, were determined by fitting the data to the Michaelis‐Menten model, Equation (3) (OriginPro 2018 (64‐bit) SR1). (3) y=VmaxX/Km+X´ where V max: is the maximum velocity, X: is the inhibitor concentration, K m: Michaelis constant.
(4) y=Vmax(X)/(Km/1+I/Ki)+X where V max: maximum velocity, X: substrate concentration, I: inhibitor concentration, K m: Michaelis constant, K i : inhibition constant.

Another assay deals with hPTP1B1−322. Also noted: method as in PMID 37628991. The following applies: previous research, cited from earlier work; for IC50: read-out: IC50 against hPTP1B1−322; for Ki: read-out: K i against hPTP1B1−322.
The target of another assay is T2, TCPTP (Homo sapiens, UniProt P17706).
T2 sequence (P17706 1-415): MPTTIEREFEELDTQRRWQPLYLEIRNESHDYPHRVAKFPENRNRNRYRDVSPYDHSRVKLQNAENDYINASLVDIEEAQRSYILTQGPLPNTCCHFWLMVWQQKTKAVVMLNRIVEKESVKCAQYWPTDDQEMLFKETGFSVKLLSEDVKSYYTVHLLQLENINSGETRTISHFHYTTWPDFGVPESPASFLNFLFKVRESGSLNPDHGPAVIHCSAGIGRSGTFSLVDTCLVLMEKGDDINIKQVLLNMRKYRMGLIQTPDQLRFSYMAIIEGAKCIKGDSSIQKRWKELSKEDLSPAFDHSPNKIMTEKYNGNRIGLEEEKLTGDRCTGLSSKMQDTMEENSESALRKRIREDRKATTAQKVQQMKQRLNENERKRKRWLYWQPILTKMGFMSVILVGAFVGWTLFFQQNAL
The assay can be described thus: T‐cell protein tyrosine phosphatase (TCPTP) activity assay (p‐NPP). Type of assay: biochemical. The note with it: for TCPTP inhibition (in words): up to 100 μM. How it is done: The effectiveness and safety of protein tyrosine phosphatase (PTP) inhibitors depend on their specificity. PTP1B and TCPTP serve different functions: PTP1B is involved in metabolism and cancer, while TCPTP regulates immune function. Inhibiting TCPTP could impact the immune response, whereas inhibiting PTP1B may benefit metabolic diseases without these side effects.^[ [20] ^, [34] ^, [35] ^] […] These compounds were assessed up to 100 μM (Table 1).
TCPTP enzyme reported by Mendoza et al. was used for this assay. […] Aliquots of 0–10 µL (triplicate) of the newly synthesized compounds, positive control, and solvent were taken. These were incubated with 85 µL of enzyme solution (Tris, 50 mM, pH 6.8, TCPTP) and 5 µL of substrate (p‐NPP, 10 mM) for 15 min at 37 °C.

Assay [2] has as its target T1, hPTP1B1–400. As to the kind of experiment: PTP1B activity assay, long form hPTP1B1–400 (p‐NPP). In kind it is biochemical. The arrangement: hPTP1B1–400 (the long form with an intrinsically disordered C‐terminal regulatory domain). The note with it: for IC50: ± S.D, p‐NPP substrate, 15 min at 37 °C, triplicate. As to the method:
The inhibitory activity of PTP1B was assessed using two enzyme variants: hPTP1B1–285 (the short form with an N‐terminal catalytic domain) and hPTP1B1–400 (the long form with an intrinsically disordered C‐terminal regulatory domain). […] According to Coronel‐Tovar et al., the disordered region of the C‐terminal domain plays a crucial role in modulating PTP1B enzymatic activity.^[ [30] ^] […] Different concentrations of the compounds were evaluated to determine their IC50 values (Table 1 ).
Recombinant human protein tyrosine phosphatase 1B, consisting of 400 and 285 amino acid residues, was used.^[ [35] ^] […] Aliquots of 0–10 µL of the test compounds (triplicate) were taken and incubated for 15 min at 37 °C with 85 µL of Tris buffer solution (50 mM, pH 6.8) containing PTP1B enzyme and 5 µL of p‐nitrophenyl phosphate substrate (p‐NPP, 10 mM). Absorbance was then measured at a wavelength of 405 nm. The inhibitory activity was determined according to Equation (1). (1) % PTP1B=(A405b/A405c)×100 where % PTP1B: Is the percentage of inhibition. A 405c: Is the corrected absorbance of the blank (A 405initial–A 405final). A 405b: Is the corrected absorbance of the compounds (A 405control–A 405compound).

In a further assay the test system is PTP1B. The note with it: cited from earlier work.
Assay [3] has as its system insulin‐resistant HepG2 cells. As to the kind of experiment: Insulin‐resistant HepG2 model, western blotting of PTP1B and pAKT. Type of assay: cell-based. The note with it: 24 h, western blot. As to the method: Subsequently, we evaluated the same compounds in a HepG2 insulin‐resistant model.
Bar graphs represent the mean ± SEM of normalized values. The control levels were set at 1. T‐test significance *p < 0.05, when compared with control (DMSO). Statistical analyses were carried out using GraphPad Prism 8.0.
For the resistant insulin model using HepG2 cells, the following reagents were acquired from Sigma–Aldrich (Toluca, MEX, Mexico, and St. Louis, MO, USA): Insulin (I2643), Dulbecco's modified eagle's medium (DMEM) low glucose media (D5523), Trypsin‐EDTA solution (T4174), antibiotic‐antimycotic solution(A5955), dimethyl sulfoxide (DMSO‐D8418), sodium deoxycholate (D6750), triethylammonium bicarbonate buffer 1 M (TEAB‐T7408), glutaraldehyde 25% (G6275), acetic acid (695092), and crystal violet (C0775). The bicinchoninic acid protein quantitation kit (23225) and the Halt Cocktail with protease and phosphatase inhibitors (1861281) were acquired from ThermoFisherScientific. Fetal bovine serum (26140–079) was from Gibco. The chemiluminescent solution (170–5061) was acquired from Biorad. Rabbit anti‐PTP1B (5311S) and mouse anti‐β actin (3700S) primary antibodies were obtained from Cell Signaling, and secondary antibodies coupled with horseradish peroxidase were from Jackson laboratories (rabbit‐111−035, mouse‐115–035).
Treated cells with compounds were washed twice with 1 mL of PBS, and protein was extracted using 500 µL of a buffer solution containing 10% sodium deoxycholate in 10% TEAB, supplemented with a protease and phosphatase inhibitor cocktail. The extracts were heated to 80 °C for 5 min and disaggregated through passages with an insulin syringe. The cell extracts were centrifuged at 15,000 rpm for 15 min at 4 °C, and the supernatant was collected. Protein quantification was performed using the bicinchoninic acid assay method, and aliquots were prepared for western blotting. SDS/PAGE was conducted, and proteins were transferred onto a nitrocellulose membrane. The membrane was then blocked with 10% skimmed milk in TBST for 1 h and incubated overnight with primary antibodies (1:400 dilution). Secondary antibodies coupled to horseradish peroxidase were diluted 1:2000, and membranes were incubated for 1 h. The blots were documented using the ChemiDoc MP (Bio‐Rad), and densitometric analysis was performed using ImageJ (U.S. National Institutes of Health). Statistical analyses were carried out using GraphPad Prism 8.0.
In general terms: In western blotting, separated proteins are transferred to a membrane and probed.

Where [4] appears, read: ± S.D, assessed up to 100 μM, read-out: TCPTP IC50.

Turning to `CC1(C)[C@@H](O)CC[C@]2(C)[C@H]3C(=O)C=C4[C@H]5C[C@@](C)(C(=O)O)CC[C@]5(C)CC[C@@]4(C)[C@]3(C)CC[C@@H]12` [18α‐GA, 18α‐glycyrrhetinic acid], on hPTP1B1–400 [1], the Inhibition type entry is given as “uncompetitive inhibition”. On hPTP1B1–400 [1] (± S.D), this molecule returned a K m of 2110 ± 680 µM and a V max of 1.94 ± 0.54 mM/min. Besides, in the assay with hPTP1B1−322, the “type of inhibition against hPTP1B1−322” value was “competitive inhibition”; the IC50 (as a rule, the concentration that inhibits the measured activity by half) was 10.4 µM; the Ki was 3.17 µM. For the same molecule, at TCPTP, the IC50 is greater than 100 µM and the “TCPTP inhibition (in words)” value is given as “do not inhibit TCPTP”.

Consider `CC1(C)[C@@H](O)CC[C@]2(C)[C@H]3C(=O)C=C4[C@@H]5C[C@@](C)(C(=O)O)CC[C@]5(C)CC[C@@]4(C)[C@]3(C)CC[C@@H]12` [18β‐GA, 18β‐glycyrrhetinic acid], for which, at hPTP1B1–400 [1], the Inhibition type entry was “uncompetitive inhibition”. Also, on hPTP1B1–400 [1] (± S.D), the K m stood at 2830 ± 960 µM and the V max stood at 3.13 ± 0.94 mM/min. Further, in the assay on hPTP1B1−322, the “type of inhibition against hPTP1B1−322” value was “competitive inhibition”, the IC50 was 26.1 µM and the Ki was 16.2 µM. For the same molecule, at TCPTP, the 50% inhibitory concentration (IC50) is greater than 100 µM and the “TCPTP inhibition (in words)” value was “do not inhibit TCPTP”.

For the molecule `CC1(C(=O)O)CCC2(C)CCC3(C)C(=CCC4C5(C)Cc6c([nH]c7ccc(C(F)(F)F)cc67)C(C)(C)C5CCC43C)C2C1` (stereo not shown) [Compound 3a], the figures for the 50% inhibitory concentration (IC50) on TCPTP (setting [4]) and on hPTP1B1–400 [2] were greater than 100 µM and 4.44 ± 0.22 µM, respectively. On hPTP1B1–400 [2] (hPTP1B1–400), the “potency relative to 18α‐GA” value was “half as potent”.

`CC1(C(=O)O)CCC2(C)CCC3(C)C(=CCC4C5(C)Cc6c([nH]c7ccc(C(F)(F)F)cc67)C(C)(C)C5CCC43C)C2C1` (stereo not shown) [Compound 3b]: the Ki at hPTP1B1–400 [1] (K i, ± S.D, hPTP1B1–400, p‐NPP 0.1 to 0.5 mM) turned out to be 1.16 ± 0.13 µM. Also, the Inhibition type entry at hPTP1B1–400 [1] was “uncompetitive inhibition”. On hPTP1B1–400 [1] (± S.D), this molecule had a K m of 530 ± 80 µM and a V max of 0.63 ± 0.06 mM/min. The IC50 at TCPTP (setting [4]) was greater than 100 µM. The IC50 at hPTP1B1–400 [2] worked out at 2.84 ± 0.26 µM.

Regarding `Cc1ccc(-n2ncc3c2C(C)(C)C2CCC4(C)C(CC=C5C6CC(C)(C(=O)O)CCC6(C)CCC54C)C2(C)C3)cc1` (stereo not shown) [Compound 5a], the IC50 is greater than 100 µM on TCPTP (setting [4]) and 2.05 ± 0.09 µM against hPTP1B1–400 [2].

For the molecule `Cc1ccc(-n2ncc3c2C(C)(C)C2CCC4(C)C(CC=C5C6CC(C)(C(=O)O)CCC6(C)CCC54C)C2(C)C3)cc1` (stereo not shown) [Compound 5b], the IC50 on TCPTP (setting [4]) was greater than 100 µM; against hPTP1B1–400 [2] it was 2.54 ± 0.05 µM.

On to `[Na+].[Na+].[Na+].[O]=[V]([O-])([O-])[O-]` [SOV, sodium orthovanadate], for which the “TCPTP inhibition (in words)” value on TCPTP is “inhibited both PTP1B and TCPTP”. Besides, the “type of PTP1B inhibition” value in the assay with PTP1B was “nonselective, competitive, and reversible inhibitor”.

Consider `Cc1ccc(C(=O)Nc2ccc(S(=O)(=O)O)c3cc(S(=O)(=O)O)cc(S(=O)(=O)O)c23)cc1NC(=O)c1cccc(NC(=O)Nc2cccc(C(=O)Nc3cc(C(=O)Nc4ccc(S(=O)(=O)O)c5cc(S(=O)(=O)O)cc(S(=O)(=O)O)c45)ccc3C)c2)c1` [SU, suramin], for which the “type of PTP1B inhibition” value with PTP1B is “competitive and reversible inhibitor”.

As to `C[C@H]1[C@H](C)CC[C@]2(C(=O)O)CC[C@]3(C)C(=CC[C@@H]4[C@@]5(C)CC[C@H](O)C(C)(C)[C@@H]5CC[C@]43C)[C@H]12` [UA, ursolic acid], in assay [3], the “AKT phosphorylation (pAKT) levels” value is on record as “did not demonstrate a notable change” and the PTP1B levels result is “neither metformin, ursolic acid, nor GA derivatives significantly reduced PTP1B levels”. Besides, the IC50 on TCPTP was greater than 100 µM.

As for `CN(C)C(=N)N=C(N)N` [metformin], in assay [3], the “AKT phosphorylation (pAKT) levels” value is given as “significant increase” and the PTP1B levels entry is on record as “neither metformin, ursolic acid, nor GA derivatives significantly reduced PTP1B levels”.
